# Tests used:
# [1] = system: rat primary cardiomyocytes; experiment: MTT viability of rat primary cardiomyocytes after cold ischemia-reperfusion; assay type: cell-based
# Protocol: (§1) MTT, or […] (Sigma), is a molecule that bonds to mitochondrial dehydrogenases (DH) in the presence of oxidized nicotimamide adenine dinucleotide and nicotimamide adenine dinucleotide phosphate (NAD+ and NADP+) coenzymes to form insoluble formazan crystals of violet color. The resulting violet color is evidence of mitochrondrial function and thus of cell viability. The crystals were dissolved in a permeabilization solution (dimethyl sulfoxide or DMSO, Sigma). This solubilization of formazan also gives rise to cell lysis. The plates were read by spectrophotometry (Multiskan Ex, Thermo, Electron Corporation®) at 550 nanometers (nm).
# (§2) The purpose of this protocol was to determine the potentially protective effect of cyclosporin and/or taxol on cardiomyocytes placed in a cold ischemia situation at 4° C. for 24 hours (h), followed by reperfusion for 24 h, at the end of which the viability test (the MTT test) was performed. A “sham” group was not subjected to the ischemia—reperfusion sequence. At each of the doses tested, four different experiments were performed, and during each experiment, eight different cell wells were tested simultaneously.
# (§3) Statistical analysis consisted in comparing means (Student's test between the group under study and the control group).
# [2] = system: H9c2 cardiomyocytes; experiment: MTT viability of H9c2 cardiomyocytes after cold ischemia-reperfusion; assay type: cell-based, rat
# Protocol: This was a conventional model for culturing rat cardiomyocytes. The H9c2 cardiac cells (ATTC®) came from rat heart ventricles transfected with a pSV3 plasmid containing the SV40 gene. The cells were cultivated in high glucose Dulbecco's modified Eagle's medium (DMEM) (PAA®), with an additional 10% of Mycoplex FBS (PAA®) and 1% penicillin-streptomycin. The medium was changed every two days and re-seeding was performed at 70%-80% confluence.
# as §1, §2, §3
# The viability of primary cardiomyocytes was evaluated after 24 h of cold ischemia and 24 h of reperfusion.
# As before, the viability of H9c2 cardiomyocytes was evaluated after 24 h cold ischemia and 24 h reperfusion.
# [3] = system: isolated whole rat heart; experiment: Functional recovery (LVDevP×HR) of perfused isolated rat heart (Langendorff mode) after cold ischemia-reperfusion; settings: 1 μM in Celsior solution; 8 h cold ischemia at 4° C. + 1 h reperfusion at 37° C.; p<0.01
# Protocol: The rats were anesthetized by intraperitoneal injection of sodium pentobarbital (50 milligrams per kilogram (mg/kg)). They were then placed in dorsal decubitus. After isolating the femoral vein, heparin was administered intravenously (200 IU/kg). An abdominal incision was made, followed by a thoracic incision. The sternum was pulled towards the rat's head, using a clamp, and the diaphragm was dissected. The heart isolated from its pericardium was excised and stopped in the hypothermic Celsior solution. […] The hearts were then placed at 4° C. in the same solution for 8 h (the cold ischemia stage), prior to reperfusion (the reanimation stage).
# After 8 h of cold ischemia, each heart was fastened by its aorta to a cannula for continuous retrograde perfusion using Krebs Henseleit (KH, having the following composition in mM: glucose 11.0; NaCl 118.5: KCl 4.75; MgSO4 1.19, KH2PO4 1.2; NaHCO3 24.0; CaCl2 1.4). A constant pressure of 100 centimeters (cm) of H2O (corresponding to 74 millimeters of mercury (mmHg)) was imposed. The KH solution was bubbled continuously with 95% O2+5% CO2, in order to maintain its pH at 7.4.
# A latex balloon was installed in the left ventricle and connected to a pressure sensor previously calibrated by internal calibration (0 to 200 mmHg). At the beginning of reperfusion, the balloon was inflated in order to obtain a telediastolic pressure of about 5 mmHg. […]
# [4] = system: isolated whole rat heart; experiment: Myocardial necrosis (size of infarctus, TTC dye) of isolated rat heart after cold ischemia-reperfusion; settings: 1 μM in Celsior solution, 8 h cold ischemia at 4° C. then reperfusion
# Protocol: The rats were anesthetized by intraperitoneal injection of sodium pentobarbital (50 milligrams per kilogram (mg/kg)). They were then placed in dorsal decubitus. After isolating the femoral vein, heparin was administered intravenously (200 IU/kg). An abdominal incision was made, followed by a thoracic incision. The sternum was pulled towards the rat's head, using a clamp, and the diaphragm was dissected. The heart isolated from its pericardium was excised and stopped in the hypothermic Celsior solution. […] The hearts were then placed at 4° C. in the same solution for 8 h (the cold ischemia stage), prior to reperfusion (the reanimation stage). After 8 h of cold ischemia, each heart was fastened by its aorta to a cannula for continuous retrograde perfusion using Krebs Henseleit (KH, having the following composition in mM: glucose 11.0; NaCl 118.5: KCl 4.75; MgSO4 1.19, KH2PO4 1.2; NaHCO3 24.0; CaCl2 1.4). A constant pressure of 100 centimeters (cm) of H2O (corresponding to 74 millimeters of mercury (mmHg)) was imposed. […] For each slice, the ratio AN/AR was expressed as a percentage, representing the size of the infarctus. The sum of the infarctuses in all of the sections belonging to the same left ventricle gave the quantity of necrosis for the heart in question. […] At the end of cold ischemia, the hearts were reperfused and the size of infarctus was analyzed histologically after using TTC dye.
# [5] = 1 μM, 5 μM and 10 μM in MM, 24 h cold ischemia + 24 h reperfusion
# [6] = tested 0.25-10 μM in St. Thomas basal solution, 24 h cold ischemia + 24 h reperfusion
structure (smiles),measurement,setting,value
"CC(=O)O[C@H]1C(=O)[C@@]2(C)[C@H]([C@H](OC(=O)c3ccccc3)[C@]3(O)C[C@H](OC(=O)[C@H](O)[C@@H](NC(=O)c4ccccc4)c4ccccc4)C(C)=C1C3(C)C)[C@]1(OC(C)=O)CO[C@@H]1C[C@@H]2O [taxol, paclitaxel]","cardioprotective effect when added singly to LYPS, relative to ""MM"" reference group",[1]; [5],adds nothing in terms of cardioprotective effect
same,cardiomyocyte viability increased (MTT) relative to control group,"[1]; agent at optimum concentration around 1 μM in St. Thomas basal solution, 24 h cold ischemia at 4° C. + 24 h reperfusion, p<0.01",about 25%
same,optimum concentration for increasing cardiomyocyte viability,[1]; [6],around 1 μM
same,"cardioprotective effect when added singly to LYPS, relative to ""MM"" reference group",[2]; [5],adds nothing in terms of cardioprotective effect
same,cardiomyocyte viability increased (MTT) relative to control group,"[2]; agent at optimum concentration around 1 μM in St. Thomas basal solution, 24 h cold ischemia at 4° C. + 24 h reperfusion, p<0.001",about 90%
same,optimum concentration for increasing cardiomyocyte viability,[2]; [6],around 1 μM
same,improvement in LVDevP×HR compared with the control group,[3],25%
same,"size of infarctus (AN/AR), % of the zone at risk",[4],8.7%

# — US10440947B2, “Aqueous solution for preserving an organ and uses during hypothermic ischemia” (UNIVERSITE CLAUDE BERNARD LYON I, priority 2013, dated 2019)
